In patent US9023761B2, “Compositions and methods for blocking ethylene response in plants using 3-cyclopropyl-1-enyl-propanoic acid salt” (Yissum Research Development Company of the Hebrew …, priority 2007, dated 2015):
Read-outs that look alike come from different tables or passages of the source. Each block holds one molecule with its values, some of them ahead of it.

Assays:
[1] = background statement; cited from earlier work
[2] = system: Carnation flower petal; assay: Ethylene-induced senescence of isolated carnation petals; format: in vivo
Experimental: (§1) Each kind of the model plants was exposed to different concentrations of CPAS in an aqueous solution for 6-18 h as a pre-treatment following exposure for 24 h to different concentration of ethylene. In the case of banana and avocado fruits, the peel was brushed with different concentrations of CPAS aqueous solution, in the presence of commercially available Tween 20 surfactant (0.025%) as pre-ethylene treatment, and the delay in days elapsed until color breakdown (from green to yellow in banana—Table 1, FIG. 4; and from green to black in avocado—Table 1, FIG. 6) over air control was recorded as a criterion of the efficiency of the ethylene antagonist. In the case of peach fruit, the surfactant BAS 70 (generously supplied by BASF, Germany) was used. The results were recorded after incubation of 2-4 days in controlled conditions (Table 1, FIG. 11). When using cut flower models (FIGS. 1-3) CPAS aqueous solutions±surfactants was applied by loading either the cut flower or the isolated petals for 18 h in CPAS aqueous solutions prior to ethylene treatment. The number of days of the delay of senescence of the tested plant materials over water control was recorded, by following the visual wilting of the flowers. Tomato seedlings were sprayed with CPAS aqueous solutions in the presence of commercial available ‘Kinetic’ organo-silicone surfactant blend, kept for calibration in a growth chamber for 8-10 hr before spraying with CPAS solution or before loading CPSA by excised seedlings via their lower stem cut surface (Table 1, FIG. 10) in order to antagonize ethylene-induced epinasty of leaf petioles (Table 1, FIGS. 8-9). In the case of citrus leaf explants, abscission was tested at the laminar abscission zone. CPAS in aqueous solution, was either pre-treated by direct loading of the treatment solutions into the proximal side of the explant for 17 h, or by dipping the whole explant in the tested solutions for 30 to 60 sec in the presence of commercially available Tween 20 TM surfactant (0.025%. In all cases, a significant delaying action of ethylene-induced responses, was recorded in all the plant systems examined (Table 1, FIG. 7). In further examples, the concentrations of the CPAS aqueous solutions were used in the range of the results obtained in the above experiment.
The following test was designed to further establish the ability of water soluble CPAS in aqueous solution to delay the ethylene-induced senescence of isolated carnation petals. The experiment was carried out in a growth chamber to ensure optimal environmental conditions (light, temperature and relative humidity). Carnation petals were loaded with CPAS by dipping their cut surface for 18 hr in aqueous solution containing 81 μg mL^−1 of CPAS. Untreated petals that were held in water. […]

[3] = system: Banana fruit; assay: Ethylene-induced ripening of green banana fruit (peel color, firmness); format: in vivo
Experimental: as §1
Banana fruits were treated by brushing with aqueous solution of water soluble CPAS (200 μg mL^−1). After 18 hr all treated and untreated fruits were exposed to ethylene (300 μL^−1) to hasten ripening. All fruits were ventilated and held in air at 22° C. and 92% RH for assessment of their ripening value. Photos were taken on day 12 (untreated—FIG. 4A, treated FIG. 4B).
Additionally, banana fruits were treated by brushing with aqueous solution of CPAS ([…], and commercially available surfactant Tween 20 [0.025%]) and after 18 hr were exposed to ethylene (300 μL/L^−1) for 24 hr to hasten ripening. Fruits were kept at 24° C. and 92% RH. The fruits kept in air and treated by CPAS only served as comparative ones. Results were collected on day 7 (FIG. 5A).

[4] = system: Peach fruit; assay: Peach fruit firmness / shelf life after spraying; format: in vivo
Experimental: as §1, with “When using cut flower models (FIGS. 1-3) CPAS aqueous solutions±surfactants was applied by loading either the cut flower or the isolated petals for 18 h in CPAS aqueous solutions prior to ethylene treatment.” left out, “Tomato seedlings were sprayed with CPAS aqueous solutions in the presence of commercial available ‘Kinetic’ organo-silicone surfactant blend, kept for calibration in a growth chamber for 8-10 hr before spraying with CPAS solution or before loading CPSA by excised seedlings via their lower stem cut surface (Table 1, FIG. 10) in order to antagonize ethylene-induced epinasty of leaf petioles (Table 1, FIGS. 8-9). In the case of citrus leaf explants, abscission was tested at the laminar abscission zone.” left out
Peach fruits were harvested and brought to the lab and immediately sprayed with different concentrations of CPAS solution (K-phosphate buffer, 20 mM, and 0.1% organo-silicone surfactant, namely BAS 90370S by BASF Germany), and kept at 22° C. and 90% humidity for up to 4 days. […] Firmness was recorded by a penetrometer (chatillon, using a disc of 8 mm diameter), after removing a 15 mm square peel strip in order to allow measuring the firmness directly on the flesh of the fruit.

[5] = system: Tomato leaf petiole; assay: Ethylene-induced epinasty of tomato leaf petioles; format: in vivo; parameters: key to Protection (effect grade): + = weak effect; ++ = medium effect; +++ = strong effect; details: ethylene treatment +
Experimental: as §1
For the spraying experiment (FIG. 8) tomato plants from green house (3 weeks old) were brought for calibration in a growth chamber (8-10 hr, at 22° C. and 80% RH, under continuous fluorescent light). […]
In a second experiment the changes of the degree of the petiole from the branch, that expresses the epinastic response, was calculated (FIG. 9). […]

[6] = system: Petunia flower; assay: Petunia cut flower vase life after ethylene; format: in vivo
Experimental: as §1, with “Tomato seedlings were sprayed with CPAS aqueous solutions in the presence of commercial available ‘Kinetic’ organo-silicone surfactant blend, kept for calibration in a growth chamber for 8-10 hr before spraying with CPAS solution or before loading CPSA by excised seedlings via their lower stem cut surface (Table 1, FIG. 10) in order to antagonize ethylene-induced epinasty of leaf petioles (Table 1, FIGS. 8-9). In the case of citrus leaf explants, abscission was tested at the laminar abscission zone.” left out, “experiment. […]” for “experiment.”

[7] = system: Citrus leaf explants; assay: Abscission of citrus leaf explants; format: in vivo; details: for Minimum apparent concentration / Protection time (days over control): Citrus leaf abscission, ethylene treatment +
Experimental: as §1
The application of water soluble CPAS to citrus leaf explants was studied under air, antagonizing endogenous ethylene-induced abscission, comparing two methods of applications; either by dipping their petiole cut surfaces for 6 h in CPAS aqueous solution, or by dipping the whole explants for 30 sec. in the same treatment solution plus or minus a surfactant. In this experiment Tween-20 (0.025%) was chosen as surfactant, but any un-ionic surfactant may be chosen. The experiment indicates, as expected, that surfactants improve the penetration into plant tissues. However, if application is preferred via a cut surface like with cut flowers, there is no need to add a surfactant to the treatment solution (FIG. 7).
FIG. 7 represents a set of three figures, wherein explants are loaded with CPAS by dipping their petiole cut surfaces for 6 h in CPAS aqueous solution (A); dipped for 30 sec. in the same treatment solution (B); and treated as in B, but including Tween-20 [0.025%] (C).

[8] = Solubility and stability in water; format: physicochemical
[9] = system: Carnation flower; assay: Carnation cut flower vase life; format: in vivo
Experimental: as §1
Carnation cut flowers treated by dipping cut surface for 18 hr in aqueous solution containing 8 μg mL^−1 of CPAS. Untreated flowers were held in water. After treatment all flowers are kept in water at 22° C. and 80% RH under continuous fluorescent light for assessment of their vase life. Photo was taken on day 14.

[10] = system: Avocado fruit; assay: Ethylene-induced ripening of 'Hass' avocado fruit (peel color, firmness, peduncle abscission); format: in vivo
Experimental: as §1
“Hass” avocado fruits with long peduncles were loaded with water soluble CPAS by dipping the peduncle cut surface for 30 hr in aqueous solution containing 100 μg/mL^−1 of CPAS. The untreated fruits with peduncles immersed in water. After the treatment with CPAS all fruits were exposed for 24 hr to the ethylene (250 μL L^−1). Afterwards the fruits were held at 24° C. and 92% RH for assessment their maturity parameters (peel color change and pulp firmness) and abscission of the peduncle. Photos were taken on day 5 after treatment (untreated—FIG. 6A, treated FIG. 6B).

[11] = Carnation flower petal, senescence, loading, ethylene treatment +
[12] = Banana fruit, peel color, brushing, ethylene treatment +
[13] = Peach fruit, firmness, spraying, ethylene treatment −
[14] = Petunia flower, vase life, loading, ethylene treatment +
[15] = Carnation flower, vase life, loading, ethylene treatment −
[16] = Avocado fruit, peel color, loading, ethylene treatment +
[17] = avocado, 100 μg/mL loading via peduncle 30 hr, ethylene 250 μL L^−1 24 hr

SMILES: CC1=CC1 [1-MCP, 1-methylcyclopropene]
Solubility in water [1]: insolubility in water

Solubility in water [8]: soluble | Stability in water [8]: stable in water
SMILES: O=C([O-])CCC1=CC1.[Na+] [CPAS, cyclopropyl-1-enyl-propanoic acid sodium salt]
Ethylene antagonistic effect on petal senescence ([2]; 81 μg mL^−1 loading 18 hr, ethylene 5 μl L^−1 24 hr, measured after 6 days): highly significant | Minimum apparent concentration [2, 11]: 81 µg/mL | Protection time (days over control) [2, 11]: 11 days | Toxic symptoms ([2]; carnation petals, 81 μg mL^−1 loading 18 hr): No toxic symptoms were observed | Minimum apparent concentration [3, 12]: 200 µg/mL | Protection time (days over control) [3, 12]: 6 days | Delaying the decrease in fruit firmness ([3]; banana, 1000 μg mL^−1 brushing, ethylene 24 hr): ineffective | Delay of color break of the fruit ([3]; banana, brushing, ethylene, effective at the higher concentrations): significantly delayed | Delay of banana peel de-greening ([3]; summary statement): ≥ 12 days | Minimum apparent concentration [4, 13]: 10 µg/mL | Protection time (days over control) [4, 13]: 4 days | Shelf life of climacteric fruit (peach) ([4]; spraying with surfactant, 22° C., up to 4 days): expand the shelf life | Minimum apparent concentration ([5]; loading): 9 µg/mL | Protection (effect grade) ([5]; loading): *+++ | Minimum apparent concentration ([5]; spraying): 160 µg/mL | Protection (effect grade) ([5]; spraying): *+++ | Minimum apparent concentration [6, 14]: 98 µg/mL | Protection time (days over control) [6, 14]: 17 days | Prolonging the vase-life of petunia cut flowers ([6]; summary statement): ≥ 14 days | Minimum apparent concentration ([7]; dipping): 42 µg/mL | Protection time (days over control) ([7]; dipping): 2 days | Minimum apparent concentration ([7]; loading): 32 µg/mL | Protection time (days over control) ([7]; loading): 7 days | Delay of abscission of citrus leaf explants ([7]; summary statement): ≥ 7 days | Longevity of carnation cut flowers during vase life ([9]; 8 μg mL^−1 dipping cut surface 18 hr, day 14, vs untreated): longevity increase | Minimum apparent concentration [9, 15]: 0.8 µg/mL | Protection time (days over control) [9, 15]: 10 days | Prolonging the vase-life of carnation cut flowers ([9]; summary statement): ≥ 14 days | Minimum apparent concentration [10, 16]: 100 µg/mL | Protection time (days over control) [10, 16]: 5 days | Fruit softening [10, 17]: a little delaying effect | Peduncle abscission [10, 17]: significantly delayed | Skin color development [10, 17]: significantly delayed | Delay of color change of 'Hass' avocado fruit ([10]; summary statement): ≥ 5 days
